These results are taken from PubChem BioAssay AID977606 (Broad Institute, 2014).

For the assay, the system named is INS-1E Gaussia luciferase insulin secretion, no glucose, luminescence. As to the kind of experiment: insulin secretion activators without glucose, dose response, counter-screen for glucose-dependent insulin secretion activators, cell-based, INS-1E, Gaussia luciferase, luminescence, cherry-pick (AID 977606). (In general: A counterscreen serves to expose hits that act by an unwanted route or on another target.)

Each structure is given as a SMILES string. The source made the active and inactive calls. No rule for the calls is given here.

For `CCOC(=O)c1c(-n2cnnn2)sc2c1CCCC2`, the AC40 was > 35 µM (inactive).

For the compound `N#Cc1c(-c2cccc(Br)c2)cc(-c2cccnc2)nc1N`, the AC40 is 8.34 µM.

As for `Fc1ccccc1-c1ccc(C2[C@@H]3CN(Cc4ccccc4)C[C@H]2N3)cc1` (stereo partly specified), the AC40 was 7.19 µM.

For `Cc1nn(-c2ccccc2)c2nc(C(F)F)cc(C(F)F)c12`, the AC40 was 30.4 µM.

As for `COc1ccc(C(O)c2nc(-c3ccc(OC)c(OC)c3)cs2)cc1` (stereo unspecified), the AC40 is 34.2 µM.

As for `CCN=C1NC(c2ccc(C(F)(F)F)cc2)C(C(=O)OC)=C(C)N1Cc1cccc(C(F)(F)F)c1` (stereo unspecified), the AC40 was 3.88 µM.

Regarding `O=C1Nc2ccccc2N(C(=O)c2ccc3ccccc3c2)C1c1nc2ccccc2[nH]1` (stereo unspecified), the AC40 is 6.41 µM.

Regarding `CN(C)Cc1ccccc1Sc1ccc2c(c1)CCCC2`, the AC40 is 13 µM.

Take `CCOc1ccccc1CNC(c1ccccc1)c1ccccc1`: the AC40 was 2.21 µM.

In the case of `OC[C@@H]1[C@@H](c2ccc(C#CC3CCCC3)cc2)[C@@H]2CN(CCC(F)(F)F)CCCCN12`, the AC40 was 8.18 µM.

Take `Cc1cc2c(cc1C)CSC(c1c(O)ccc3ccccc13)SC2`: the AC40 was 17.9 µM.

For `N#Cc1sc2nc(N3CCCCC3)c3c(c2c1N)CCCC3`, the AC40 was 21.2 µM.

In the case of `CCOC(=O)[C@]12Cc3c(cc(OC)c(OC)c3OC)[C@H]1N(C1CCCCC1)C(=O)c1cc(OC)ccc12`, the AC40 was 6 µM.

Take `CCn1c(O)c(/C=N/N=C/c2ccc(OC)cc2)c2cc(C3=NNC(=O)CC3)ccc21`: the AC40 is 4.2 µM.

For `O=C(Nc1cccc(Cl)c1)Nc1nnc(CSCCOc2ccc(Cl)cc2)s1`, the AC40 is 3.41 µM.

Regarding `Oc1ccccc1C1SC(c2ccccc2O)SC(c2ccccc2O)S1` (stereo unspecified), the AC40 was 5.36 µM.

Take `CN(C)c1ncnc2sc(-c3ccccc3)cc12`: the AC40 is 30.3 µM.

Turning to `Cc1nc2c(=O)n(C)c(=O)n(C)c2nc1Cl`, the AC40 was 23.6 µM.

Consider `OC(c1ccccc1)(c1ccccc1)C1CCN(CCCOc2cccc(OC(F)(F)F)c2)CC1`, for which the AC40 was 3.95 µM.

For the compound `CC(C)COc1ccc(Br)cc1CNC(C)(C)C`, the AC40 was > 35 µM (inactive).

With `CCN(CC)c1ccc(N=Cc2c(O)n(Cc3ccccc3)c(=O)[nH]c2=O)cc1`, the AC40 was 7.08 µM.

Consider `Cc1ccc(C)c(OCC(=O)Nc2nonc2NC(=O)COc2cc(C)ccc2C)c1`, for which the AC40 was 3.38 µM.

Turning to `CCOC(=O)c1c(-c2ccc(-c3ccccc3)cc2)csc1NC(=O)CNCCN(C)C`, the AC40 was 5.75 µM.

For the compound `O=C(N/N=C/c1ccc(O)cc1O)NC12CC3CC(CC(C3)C1)C2`, the AC40 was 13.3 µM.

For `CN(C)C=NC(=O)c1ccc(N2CCN(c3ncc(C(F)(F)F)cc3Cl)CC2)cc1`, the AC40 is 5.6 µM.

In the case of `O=C(Nc1nc2ccccc2n1Cc1ccc(Cl)cc1)c1ccco1`, the AC40 was 6.72 µM.

With `NS(=O)(=O)c1ccc(NC(=O)COC(=O)c2cn(-c3ccccc3)nc2-c2ccc(F)cc2)cc1`, the AC40 is 4.09 µM.

In the case of `N#Cc1cccc(-c2ccc([C@@H]3[C@@H]4CN(S(=O)(=O)c5ccc(-c6ccccc6)cc5)C[C@H]3N4)cc2)c1`, the AC40 is 1.89 µM.

For `Cn1c(=O)c(C(=O)NNC(=O)c2cccc(Cl)c2)c(O)c2ccccc21`, the AC40 was 9.13 µM.

Turning to `COC(=O)C1=C(C)N(C)C(=NCc2cccc(C(F)(F)F)c2)NC1c1ccc(C(F)(F)F)cc1` (stereo unspecified), the AC40 is 4.7 µM.

For the compound `Cc1ccccc1Cn1ccc(NC(=O)c2cc3nc(-c4ccco4)cc(C(F)(F)F)n3n2)n1`, the AC40 was 7.7 µM.

For `COc1ccccc1CCn1cnc(-c2ccccc2OC)c1CC(C)C`, the AC40 was 11.4 µM.

`CCc1c(C)sc(NC(=O)c2cc(-c3ccc(OC)c(OC)c3)on2)c1C#N`: the AC40 is 6.43 µM.

In the case of `CC1CCN(S(=O)(=O)c2ccc(C(=O)OCc3ccc4c(c3)OCO4)cc2)CC1`, the AC40 was 11.4 µM.

On to `COc1ccc(OC)c(NC(=O)c2cc3c(Cl)nc4ccccc4c3s2)c1`, for which the AC40 is 6.97 µM.

For `COc1cc(CN2CCc3ccccc3C2)ccc1O`, the AC40 was 13.6 µM.

As to `Cc1cc(C)c2c(C)nn(C3CCCCC3)c2n1`, the AC40 is > 35 µM (inactive).

Consider `CC(NC(=O)COC(=O)c1ccccc1Nc1ccccc1)c1ccccc1` (stereo unspecified), for which the AC40 was 12.1 µM.

For the compound `Cc1ccc(-n2nc3ccc(NC(=O)c4ccco4)cc3n2)cc1`, the AC40 was 8.86 µM.

`O=c1c2ccccc2sn1-c1ccccc1`: the AC40 is 1.79 µM.

For `CC(=O)Nc1ccc(Nc2nc(-c3c(C)nc4ccccn34)cs2)cc1`, the AC40 is 4.46 µM.

Turning to `COc1ccc(CC(N)c2csc(NC(=O)Nc3ccc(C(C)C)cc3)n2)cc1` (stereo unspecified), the AC40 is 3.58 µM.

On to `CCCCCCc1cc2cc(C(=O)Nc3cccc(OC)c3)c(=O)oc2cc1O`, for which the AC40 was 13.4 µM.

Turning to `CC1(C(=O)NCC2CCCCC2)CCN1CCc1ccccc1` (stereo unspecified), the AC40 was 17.9 µM.

As for `COc1cc(CN2C[C@@H]3N[C@H](C2)C3c2ccc(/C=C/c3ccccc3)cc2)cc(OC)c1` (stereo partly specified), the AC40 is 1.76 µM.

For `C=CCNc1nc(Cl)nc(Nc2ccc(OC)cc2)n1`, the AC40 was 11.3 µM.

Regarding `O=C(NCC1OCCc2ccccc21)c1ccc(NC(=O)c2cccc(Br)c2)cc1` (stereo unspecified), the AC40 is 11.1 µM.

`COc1ccc(-n2c(-c3ccc(Cl)cc3)c[nH]c2=S)cc1`: the AC40 was 17.1 µM.

`C/C=C/c1ccc(C2[C@@H]3CN(C(=O)Nc4ccc(C(F)(F)F)cc4)C[C@H]2N3)cc1` (stereo partly specified): the AC40 was 5.83 µM.

Take `CC(C)(C)C1CCc2c(sc(NC(=O)c3cccs3)c2C(N)=O)C1` (stereo unspecified): the AC40 is 16.5 µM.

For the compound `CN(C)CCCNc1cc(C(C)(C)C)nc2c(-c3ccc(Cl)cc3)cnn12`, the AC40 is 3.6 µM.

Turning to `O=C(CC1c2ccccc2Oc2ccccc21)Nc1ccccc1C(F)(F)F`, the AC40 was 5.33 µM.

On to `COc1ccccc1CCn1cnc(-c2cccc(F)c2)c1C(C)C`, for which the AC40 is 11.6 µM.

With `COc1ccc(C#Cc2ccc([C@@H]3[C@@H](CO)N4CCCCN(Cc5ccccc5F)C[C@@H]34)cc2)cc1`, the AC40 was 11.1 µM.

Consider `C[C@@H](NC(=O)C[C@@H]1C[C@@H]2c3cc(NC(=O)Nc4ccccc4F)ccc3O[C@@H]2[C@@H](CO)O1)c1ccccc1`, for which the AC40 is 34.3 µM.

Turning to `C/C=C/c1ccc(C2[C@H]3CNC[C@@H]2N3Cc2cc(-c3ccccc3)on2)cc1` (stereo partly specified), the AC40 is 6.73 µM.

As for `Cc1ccc(Oc2ncc(-c3ccc(Cl)cc3)cn2)cc1`, the AC40 was 4.48 µM.

Turning to `C=CCOc1ccc(-c2nc3c(c(=O)[nH]c(=O)n3CCCC)n2C)cc1Br`, the AC40 was 10.1 µM.

Take `Cc1ccccc1C(=O)Nc1nnc(-c2ccc(C(C)(C)C)cc2)s1`: the AC40 was 4.97 µM.

For `Cc1cc(C)cc(NC(=O)Cc2ccc(-n3cccc3)cc2)c1`, the AC40 is 6.9 µM.

Consider `O=C(Nc1ccccc1)c1nnsc1S(=O)(=O)c1ccc(Cl)cc1`, for which the AC40 is 0.403 µM.

Regarding `Cc1ccc(SC[C@H](C)CN2CC[C@H](C(C)(C)C)CCC2=O)cc1`, the AC40 is 4.93 µM.

Take `O=c1c2ccccc2sn1-c1ccccc1F`: the AC40 was 1.22 µM.

Turning to `NC(N)=N/N=C/c1ccc(OCc2ccccc2)c(OCc2ccccc2)c1`, the AC40 is 6.87 µM.

Regarding `CC(C)Sc1nc2c(c(=O)[nH]c(=O)n2C)n1Cc1ccc(Cl)cc1`, the AC40 was 14 µM.

`Cc1ccc2nc(-c3ccc(NC(=O)COC(=O)c4ccco4)cc3)sc2c1`: the AC40 was 3.8 µM.

Turning to `CC(C)n1nc(C(=O)Nc2ccccc2N2CCOCC2)c2ccccc2c1=O`, the AC40 was 6.12 µM.

Regarding `Cc1ccc(-c2cc(C(=O)NCc3cnn(C)c3)c3cc(Br)ccc3n2)cc1`, the AC40 is 1.24 µM.

Turning to `COc1ccc(/C=N/NC(=O)c2ccc(COc3ccccc3Cl)o2)c(OC)c1C`, the AC40 was 4.97 µM.

`CCS(=O)(=O)Nc1ccc(-c2cc(-c3ccccc3)c3cc(C)ccc3n2)cc1`: the AC40 is 17.5 µM.

For `CN1CCN(C2Cc3ccccc3Sc3cc(C(F)(F)F)ccc32)CC1` (stereo unspecified), the AC40 was 7.2 µM.

`CN(C)CCNC(=O)c1cc2c(s1)-c1ccc(Cl)cc1SC2`: the AC40 is 4.87 µM.

In the case of `COc1ccc(N2CCN(c3ccc(NC(=O)C4CCCCC4)cc3C#N)CC2)cc1`, the AC40 is 3.22 µM.

Consider `O=C(c1cccs1)c1coc2ccc(O)c(CN3CCOCC3)c12`, for which the AC40 was > 35 µM (inactive).

Consider `CC1(C(=O)NS(=O)(=O)c2ccc(Cl)s2)CCN1C(=O)C1(c2ccccc2)CCCC1` (stereo unspecified), for which the AC40 is 9.9 µM.

Regarding `CC(C)Cn1nc(-c2ccccc2)c2ccccc2c1=O`, the AC40 was 8.13 µM.

For the compound `COc1cccc(CN2C[C@@H]3N[C@H](C2)C3c2ccc(-c3ccccc3OC)cc2)c1` (stereo partly specified), the AC40 was 7.67 µM.

On to `COc1ccc(S(=O)(=O)N2CCc3ccccc3C2)cc1OC`, for which the AC40 was > 35 µM (inactive).

As to `Fc1ccc(/C=N/c2c(-c3ccc(F)cc3)nc3n2CCS3)cc1`, the AC40 was 6.12 µM.

`Cc1ccc(C)c(OCC(=O)N/N=C/c2c(C)nn(-c3ccccc3)c2Cl)c1C`: the AC40 was 1.63 µM.

For `Cc1ccc(C)c(C(=O)Nc2nc3ccccc3[nH]2)c1`, the AC40 was 4.67 µM.

As to `CC(=O)N(C1CC(C)C(C#N)(C#N)C1(C#N)C#N)N(C)C` (stereo unspecified), the AC40 was 0.795 µM.

Consider `NC(c1csc(Nc2ccc(C(F)(F)F)cn2)n1)C1CCCCC1` (stereo unspecified), for which the AC40 was 5.02 µM.

Take `Cc1ccc(-n2cc(CNCCCn3ccnc3C)c(-c3ccc(F)cc3)n2)cc1`: the AC40 is 30.7 µM.

Consider `Clc1ccc(-c2ccnc(Oc3ccc4ccccc4c3)n2)cc1`, for which the AC40 was 7.79 µM.

As for `COc1cccc(-c2sc3ccccc3c2-c2ccc(OCCN(C)C)cc2)c1`, the AC40 was 2.75 µM.

For the compound `COc1ccc(CC2c3cc(OC)c(OC)cc3CCN2C)cc1O` (stereo unspecified), the AC40 was 14.7 µM.

On to `CCC(=O)Nc1sc(Cc2ccc3c(c2)OCO3)c(C)c1C(N)=O`, for which the AC40 is 7.01 µM.

As for `O=C(CCN1CCOCC1)c1ccc2c(c1)OCCO2`, the AC40 is 33.2 µM.

Consider `c1ccc(Oc2ccccc2-c2cc(NCCc3cccnc3)n3nccc3n2)cc1`, for which the AC40 is 13.1 µM.

As for `NS(=O)(=O)c1ccc(CCNc2nc3c(-c4cccc(F)c4)nnn3c3ccccc23)cc1`, the AC40 is 2.03 µM.

`COc1ccc(NC(=O)Cn2cnc3c(cnn3-c3ccc(C)c(C)c3)c2=O)c(OC)c1`: the AC40 was 3.41 µM.

As for `O=C(NC(=S)Nc1ccc(NC(=O)c2cccs2)cc1)c1cc2ccccc2o1`, the AC40 is 10.9 µM.

As to `CCCCc1c(Cc2ccccc2)ncn1CCc1ccccc1OC`, the AC40 is 9.34 µM.

Regarding `N#Cc1ccc(-c2ccc([C@@H]3[C@H]4CNC[C@@H]3N4Cc3cc(F)ccc3F)cc2)cc1`, the AC40 was 12.8 µM.

As for `CC(=O)c1nn(-c2ccc(Br)cc2)cc1C(=O)c1ccccc1`, the AC40 is 22.1 µM.
